Our source for the GI50 and TGI values is PubChem BioAssay (NCI).

Values joined by “and” are separate entries in the source; they are usually repeats but may differ in a detail not shown here. Identical values can stand only once.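 Method: 48-hour compound exposure of cells in 96-well plates, five concentrations, linear interpolation of endpoints. GI50 is the concentration that inhibits growth by half. The concentration for full growth arrest is given as TGI.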

Test systems include BT-549 breast; MALME-3M melanoma; MCF7 breast; NCI-H23 lung; OVCAR-4 ovarian; OVCAR-8 ovarian; RPMI-8226 leukemia; SF-295 CNS; SK-MEL-5 melanoma; SR leukemia.
Holding throughout (experiment): growth of human tumour cells (NCI), 48 h

As for `O=C(c1ccccc1O)c1[nH]c(Cl)c(Cl)c1-n1c(C(=O)c2ccccc2O)cc(Cl)c1Cl`, the GI50 with BT-549 breast was 1.22 µM and 0.675 µM; in the assay with MALME-3M melanoma, 1.37 µM; in the assay on MCF7 breast, 0.407 µM and 0.258 µM; in the assay on NCI-H23 lung, 0.418 µM and 0.409 µM; with OVCAR-4 ovarian it was 2.41 µM and 1.86 µM; in the assay with OVCAR-8 ovarian, 0.643 µM and 0.558 µM. For the same compound, the GI50 with RPMI-8226 leukemia was 0.366 µM and 0.265 µM; in the assay with SF-295 CNS it was 1.05 µM and 0.792 µM; with SK-MEL-5 melanoma, 0.314 µM and 0.22 µM; in the assay with SR leukemia, 2.76 µM and 0.446 µM. Further, the TGI in the assay on BT-549 breast was 6.74 µM and 4.96 µM; in the assay on MALME-3M melanoma, 5.18 µM; in the assay with MCF7 breast, 10.6 µM and 10.3 µM; in the assay with NCI-H23 lung, 6.8 µM and 11.7 µM; with OVCAR-4 ovarian it was 19.4 µM and 10.7 µM; in the assay with OVCAR-8 ovarian it was 10.9 µM and 15.8 µM. For the same compound, the TGI is 4.21 µM and 1.57 µM in the assay on RPMI-8226 leukemia; 4.16 µM and 3.38 µM in the assay with SF-295 CNS; 1.38 µM and 0.589 µM in the assay on SK-MEL-5 melanoma; 15.2 µM and 15.1 µM with SR leukemia.

As to `CC12CCC(O)CC1=CCC1C2CCC2(C)C(c3cccnc3)=CCC12` (stereo not given), the GI50 in the assay with BT-549 breast, in the assay on MALME-3M melanoma, with MCF7 breast, in the assay on NCI-H23 lung, in the assay on OVCAR-4 ovarian and with OVCAR-8 ovarian was > 100 µM in each case. Besides, the GI50 with RPMI-8226 leukemia is 39.1 µM; with SF-295 CNS it was 56 µM; with SK-MEL-5 melanoma it was 74.2 µM; in the assay with SR leukemia, 93.9 µM. Also, the TGI in the assay on BT-549 breast, with MALME-3M melanoma, in the assay on MCF7 breast, with NCI-H23 lung, in the assay on OVCAR-4 ovarian and in the assay on OVCAR-8 ovarian was > 100 µM each time. The TGI in the assay with RPMI-8226 leukemia, in the assay on SF-295 CNS, with SK-MEL-5 melanoma and in the assay with SR leukemia was > 100 µM each time.

In the case of `CN1CCN(c2ccc(C(=O)Nc3cccc(C#Cc4cccc5[nH]nc(N)c45)c3)cc2C(F)(F)F)CC1`, the GI50 was 3.36 µM in the assay on BT-549 breast; 0.651 µM in the assay with MALME-3M melanoma; 0.582 µM in the assay with MCF7 breast; 1.79 µM in the assay on NCI-H23 lung; 0.962 µM with OVCAR-4 ovarian; 1.09 µM in the assay with OVCAR-8 ovarian. For the same compound, the GI50 in the assay on RPMI-8226 leukemia is 1.45 µM; with SF-295 CNS, 0.654 µM; with SK-MEL-5 melanoma, 2.16 µM; in the assay on SR leukemia it was 1.06 µM. Moreover, the TGI with BT-549 breast was 7.68 µM; in the assay with MALME-3M melanoma it was 1.62 µM; with MCF7 breast, 1.14 µM; in the assay with NCI-H23 lung, 6.12 µM; with OVCAR-4 ovarian it was 4.51 µM; with OVCAR-8 ovarian, 4.77 µM. Besides, the TGI came to 4.06 µM in the assay with RPMI-8226 leukemia, 1.39 µM with SF-295 CNS, 6.34 µM in the assay with SK-MEL-5 melanoma and 5.34 µM in the assay with SR leukemia.

For `Nc1cc2nc3ccccc3oc-2cc1=O`, the GI50 with BT-549 breast was 1.54 µM; in the assay with MALME-3M melanoma, 1.67 µM; in the assay with MCF7 breast it was 1.35 µM; in the assay with NCI-H23 lung, 0.811 µM; with OVCAR-4 ovarian it was 23.4 µM; in the assay with OVCAR-8 ovarian, 19.7 µM. Further, the GI50 was 0.951 µM in the assay with RPMI-8226 leukemia, 1.44 µM with SF-295 CNS, 1.16 µM in the assay on SK-MEL-5 melanoma and 9.93 µM in the assay with SR leukemia. For the same compound, the TGI was 3.53 µM with BT-549 breast; 3.63 µM in the assay on MALME-3M melanoma; 3.33 µM in the assay on MCF7 breast; 3.56 µM in the assay with NCI-H23 lung; > 100 µM in the assay on OVCAR-4 ovarian; > 100 µM in the assay with OVCAR-8 ovarian. The TGI is > 20.4 µM in the assay on RPMI-8226 leukemia, 3.79 µM in the assay with SF-295 CNS, 2.38 µM in the assay on SK-MEL-5 melanoma and > 75.3 µM in the assay with SR leukemia.

Regarding `C[C@]12CC[C@@H]3c4ccc(O)cc4CC[C@H]3[C@@H]1CC[C@@H]2NS(=O)(=O)c1ccc2ccccc2c1`, the GI50 is 2.92 µM with BT-549 breast; 2.56 µM with MALME-3M melanoma; 3.36 µM in the assay on MCF7 breast; 3.34 µM in the assay with NCI-H23 lung; 1.98 µM in the assay with OVCAR-4 ovarian; 3.16 µM in the assay with OVCAR-8 ovarian. In addition, the GI50 in the assay on RPMI-8226 leukemia is 2.93 µM; with SF-295 CNS it was 2.25 µM; in the assay with SK-MEL-5 melanoma, 1.78 µM; in the assay with SR leukemia, 3.72 µM. The TGI with BT-549 breast amounted to 8.59 µM; in the assay on MALME-3M melanoma, 8.06 µM; in the assay with MCF7 breast, 9.48 µM; in the assay with NCI-H23 lung, 14.8 µM; in the assay with OVCAR-4 ovarian, 9.36 µM; with OVCAR-8 ovarian, 11.8 µM. The TGI came to 9.94 µM with RPMI-8226 leukemia, 6.03 µM in the assay with SF-295 CNS, 3.36 µM in the assay with SK-MEL-5 melanoma and 95 µM in the assay with SR leukemia.

In the case of `NC(CO)C(=O)NCC(=O)O` (stereo not given), the TGI in the assay with BT-549 breast, in the assay on MALME-3M melanoma, in the assay on MCF7 breast, with NCI-H23 lung, in the assay on OVCAR-4 ovarian and with OVCAR-8 ovarian was > 100 µM each time. In addition, the TGI in the assay on RPMI-8226 leukemia, in the assay with SF-295 CNS, in the assay on SK-MEL-5 melanoma and in the assay with SR leukemia was > 100 µM throughout.
